# Experimental data taken from patent US20240116985A1, “STAPLED PEPTIDES AND METHODS THEREOF” (priority 2020, published 2024).
# Tests used:
# [1] = molecular target: T1, full-length beta-Catenin (Uniprot ID P35222) (Homo sapiens, UniProt P35222); experiment: Fluorescence polarization IC50 (beta-catenin / 5FAM-TCF4 10-53 competition); type: binding; details: fluorescence polarization; read-out: beta-Catenin FP IC50
# T1 construct: 10 nM full-length beta-Catenin (Uniprot ID P35222)
# T1 sequence (P35222 1-781): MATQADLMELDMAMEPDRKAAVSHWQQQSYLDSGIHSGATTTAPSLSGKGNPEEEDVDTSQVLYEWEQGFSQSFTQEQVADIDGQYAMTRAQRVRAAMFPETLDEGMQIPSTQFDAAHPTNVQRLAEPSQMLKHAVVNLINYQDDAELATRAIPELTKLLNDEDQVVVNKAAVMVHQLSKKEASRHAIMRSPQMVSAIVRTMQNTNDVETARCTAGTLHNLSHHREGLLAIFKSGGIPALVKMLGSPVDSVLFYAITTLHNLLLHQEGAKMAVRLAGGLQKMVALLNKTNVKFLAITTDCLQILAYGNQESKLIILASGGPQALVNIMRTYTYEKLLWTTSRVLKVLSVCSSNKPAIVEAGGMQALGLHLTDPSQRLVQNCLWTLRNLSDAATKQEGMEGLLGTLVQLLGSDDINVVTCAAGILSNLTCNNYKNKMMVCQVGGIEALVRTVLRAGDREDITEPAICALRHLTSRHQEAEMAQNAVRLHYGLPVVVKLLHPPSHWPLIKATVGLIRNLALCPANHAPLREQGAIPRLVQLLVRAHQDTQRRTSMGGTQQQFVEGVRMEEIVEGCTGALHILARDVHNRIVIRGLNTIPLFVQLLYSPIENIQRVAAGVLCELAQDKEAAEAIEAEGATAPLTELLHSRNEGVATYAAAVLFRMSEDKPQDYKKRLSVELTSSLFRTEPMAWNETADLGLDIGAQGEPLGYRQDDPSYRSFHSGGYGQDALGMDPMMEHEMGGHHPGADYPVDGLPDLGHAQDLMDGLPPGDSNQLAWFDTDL
# [2] = molecular target: T2, beta-catenin/TCF4 engagement (Homo sapiens, UniProt P35222); experiment: Nano-BRET target engagement assay (B-cat-Halo & TCF4-Luc in HEK293 cells); type: cell-based; details: absolute IC50; read-out: NanoBRET Abs IC50
# T2 construct: expressed in transfected cells; host or cells: HEK293
# T2 sequence (P35222 1-781): T1 sequence (P35222 1-781)
IC50 [1] [nM],IC50 [2] [nM],SMILES
5,21400,"CCCC[C@@H]1NC(=O)[C@H](CC(=O)O)NC(=O)[C@]2(CC=CCCCC3(CCCC=CCCCOC(=O)N4CC[C@@](C(=O)N[C@@H](Cc5ccsc5)C(=O)N[C@@H](Cc5csc6ccccc56)C(=O)N[C@@H](CCC(N)=O)C(N)=O)(C4)NC(=O)[C@H](CCCC)NC(=O)[C@H](Cc4ccccc4)NC(=O)[C@H](C)NC(=O)[C@H](C)NC(=O)[C@H](CC(=O)O)NC(=O)[C@H](CC(=O)O)NC3=O)NC1=O)CCCN2C(C)=O (stereo partly drawn) [I-1401, Ac-PL3-Asp-nLeu-B5-Asp-Asp-Ala-Ala-Phe-nLeu-PyrS2-3Thi-BztA-Gln-NH2]"
5,4200,"CCCC[C@@H]1NC(=O)[C@H](Cc2ccccc2)NC(=O)[C@H](C)NC(=O)[C@H](C)NC(=O)[C@H](Cc2cccc(C(=O)O)c2)NC(=O)[C@H](CC(=O)O)NC(=O)C2(CCCC=CCCCOC(=O)N3CC[C@@](C(=O)N[C@@H](Cc4ccsc4)C(=O)N[C@@H](Cc4csc5ccccc45)C(=O)N[C@@H](CCC(N)=O)C(N)=O)(C3)NC1=O)CCCC=CC[C@]1(CCCN1C(C)=O)C(=O)N[C@@H](CC(=O)O)C(=O)N[C@@H](CC(C)C)C(=O)N2 (stereo partly drawn) [I-1407, Ac-PL3-Asp-Leu-B5-Asp-3COOHF-Ala-Ala-Phe-nLeu-PyrS2-3Thi-BztA-Gln-NH2]"

# Continued, molecule first:
SMILES,IC50 [1] [nM],IC50 [2] [nM]
"CCCC[C@@H]1NC(=O)[C@H](CC(=O)O)NC(=O)[C@]2(CC=CCCCC3(CCCC=CCCCOC(=O)N4CC[C@@](C(=O)N[C@@H](Cc5ccccc5)C(=O)N[C@@H](Cc5csc6ccccc56)C(=O)N[C@@H](CCC(N)=O)C(N)=O)(C4)NC(=O)[C@H](CC(C)C)NC(=O)[C@H](Cc4ccccc4)NC(=O)[C@H](C)NC(=O)[C@H](C)NC(=O)[C@H](CC(=O)O)NC(=O)[C@H](CC(=O)O)NC3=O)NC1=O)CCCN2C(C)=O (stereo partly drawn) [I-1403, Ac-PL3-Asp-nLeu-B5-Asp-Asp-Ala-Ala-Phe-Leu-PyrS2-Phe-BztA-Gln-NH2]",6,29100
"CCCC[C@@H]1NC(=O)[C@H](Cc2ccccc2)NC(=O)[C@H](C)NC(=O)[C@H](C)NC(=O)[C@H](CC(=O)O)NC(=O)[C@H](CC(=O)O)NC(=O)C2(CCCC=CCCCOC(=O)N3CC[C@@](C(=O)N[C@@H](Cc4ccccc4)C(=O)N[C@@H](Cc4csc5ccccc45)C(=O)N[C@@H](CCC(N)=O)C(N)=O)(C3)NC1=O)CCCC=CC[C@]1(CCCN1C(C)=O)C(=O)N[C@@H](CC(=O)O)C(=O)N[C@@H](CC(C)C)C(=O)N2 (stereo partly drawn) [I-1404, Ac-PL3-Asp-Leu-B5-Asp-Asp-Ala-Ala-Phe-nLeu-PyrS2-Phe-BztA-Gln-NH2]",113,36800
"CCCC[C@@H]1NC(=O)[C@H](CC(=O)O)NC(=O)[C@]2(CC=CCCCC3(CCCC=CCCCOC(=O)N4CC[C@@](C(=O)N[C@@H](Cc5ccccc5)C(=O)N[C@@H](Cc5csc6ccccc56)C(=O)N[C@@H](CCC(N)=O)C(N)=O)(C4)NC(=O)[C@H](CCCC)NC(=O)[C@H](Cc4ccccc4)NC(=O)[C@H](C)NC(=O)[C@H](C)NC(=O)[C@H](CC(=O)O)NC(=O)[C@H](CC(=O)O)NC3=O)NC1=O)CCCN2C(C)=O (stereo partly drawn) [I-1405, Ac-PL3-Asp-nLeu-B5-Asp-Asp-Ala-Ala-Phe-nLeu-PyrS2-Phe-BztA-Gln-NH2]",9,40100
"CC(=O)N1CCC[C@]12CC=CCCCC1(CCCC=CCCCOC(=O)N3CC[C@@](C(=O)N[C@@H](Cc4ccsc4)C(=O)N[C@@H](Cc4csc5ccccc45)C(=O)N[C@@H](CCC(N)=O)C(N)=O)(C3)NC(=O)[C@H](CC(C)C)NC(=O)[C@H](Cc3ccccc3)NC(=O)[C@H](C)NC(=O)[C@H](C)NC(=O)[C@H](Cc3cccc(C(=O)O)c3)NC(=O)[C@H](CC(=O)O)NC1=O)NC(=O)[C@H](CC(C)C)NC(=O)[C@H](CC(=O)O)NC2=O (stereo partly drawn) [I-1406, Ac-PL3-Asp-Leu-B5-Asp-3COOHF-Ala-Ala-Phe-Leu-PyrS2-3Thi-BztA-Gln-NH2]",6,5000
